Laboratory results as given in US6846637B1, “Fas peptides and antibodies for modulating apoptosis” (IMED AB, priority 1998, dated 2005).

What was measured:
[1] = system: antibodies in human sera of healthy blood donors; assay: ELISA reactivity of human serum to Fas peptides; type: binding; conditions: for Reactivity to Fas peptides in ELISA, Human serum: O.D. 490 nm classes; for reactivity with human sera: sera of 30 healthy blood donors, in words
Excerpt: The derived amino acid sequence (a.a.1-179) of the Fas protein (Itoh et al., 1991) was used for simultaneous multiple solid-phase peptide synthesis (Houghten et al, 1985) of 20 amino acid long peptides (with a 10-residue overlap).

[2] = system: immunoglobulin preparations derived from pooled human serum (Gammagard); assay: ELISA reactivity of immunoglobulin preparations (Gammagard) to Fas peptides; type: binding; conditions: O.D. 490 nm classes
Experimental: Similar experiments were performed with commercially available immunoglobulin preparations derived from pooled human serum enriched by immunosorbence for immunoglobulin fractions (Gammagard-Baxter, Hyland, Glendale, Calif. USA).

[3] = system: PHA-stimulated T cell blasts; assay: Proliferation of PHA-stimulated T-cell blasts (Alamar Blue); type: cell-based, human; conditions: anti-CD3 alone
Experimental: PBMC were stimulated with phytohemagglutinin (PHA) ([…]) (Pharmacia Biotech, Sweden) for 48 hours. […] After 48 hours incubation, the proliferation was assessed by Alamar Blue Assay (Biosource International, USA.) and the results were expressed as percent difference in reduction of (fluorometric/colorometric) REDOX indicator between antibody coated and control (without antibodies) wells according to manufacturer's instructions (AMS Biotechnology AB, Sweden).

Jurkat leukemia T cells = assay: TUNEL assay of apoptosis of Jurkat cells on immobilized anti-Fas peptide antibodies; type: cell-based, human; conditions: immobilized antibody, 48 h, TUNEL/FACS; control well 18%
Experimental: The antibody-concentrations were anti-Fp5 (10 μg/ml), anti-Fp11 (10 μg/ml) and anti-Fpl7 (40 μg/ml). Cells were collected after 48 h incubation, and the fragmented DNA of apoptotic cells was assessed by Apoptosis Detection System, Fluorescein (Promega, Madison, Wis.) based on TdT-mediated dUTP Nick-End Labeling (TUNEL) assay and FACS analysis (CellQuest software, Becton Dickinson) according to manufacturer's instructions. For apoptosis inhibition experiments, Jurkat cell culture medium was supplemented with 200 ng/ml of recombinant Fas-Fc chimera (R&D Systems Europe Ltd, Abingdon, UK). Inhibition of CH-11-mediated apoptosis was performed as described in Fadeel et al., 1997. Data are presented as the mean value of four independent experiments, and the standard error of mean is indicated by the error bars.
Ability to mediate apoptosis and inhibition of proliferation was determined using antibodies immobilized to plastic surface.

[4] = molecular target: Fas peptide Fp11 (Glu100-Cys119) (human); assay: peptide ELISA; legend: +++ > 1.0 O.D.
Chain of Fas peptide Fp11 (Glu100-Cys119) (human) (peptide, as listed by the source): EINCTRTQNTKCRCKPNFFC

[5] = molecular target: Fas peptide Fp17 (Trp160-Val179) (human); assay: peptide ELISA; legend: + = <0.5 O.D. 490 nm
[6] = molecular target: Fas peptide Fp5 (Gly40-Val59) (human); assay: peptide ELISA; legend: + = <0.5 O.D. 490 nm

With WLCLLLLPIPLIVWVKRKEV [Fp17] the “serum titers against peptide” value ([1]; 30 healthy donors, comparison of Fp5, Fp11, Fp17) was “lowest mean titers”, the “Reactivity to Fas peptides in ELISA, Human serum” value (shortened to “Reactivity … Human serum”) [1] was “+++ (+++ > 1.0 O.D.)” and the “reactivity with human sera” value [1] was “reactive”. For the same substance, the “Reactivity to Fas peptides in ELISA, Immunoglobulin preparations (Gammagard)” value (from here on “Reactivity to Fas peptides … (Gammagard)”) [2] was “+ (+ = <0.5 O.D. 490 nm)”.
For “anti-CD3: purified anti-CD3 monoclonal antibody (OKT-3, 10 μg/ml)”, the reduction of proliferation [3] was 12%.
With KEEGSRSNLGWLCLLLLPIP [Fp16] the “reactivity with human sera” value [1] was “low or no reactivity” and the “Reactivity to Fas peptides … (Gammagard)” value [2] was “+ (+ = <0.5 O.D. 490 nm)”.
With GQFCHKPCPPGERKARDCTV [Fp5] the “Reactivity … Human serum” value [1] was “++ (++ = <1.0 O.D.)”, the “reactivity with human sera” value [1] was “reactive” and the “apoptosis induced in Jurkat leukemia cells” value (Jurkat leukemia T cells) was 25%. For the same substance, the “Reactivity to Fas peptides … (Gammagard)” value [2] was “+ (+ = <0.5 O.D. 490 nm)”.
For KCRCKPNFFCNSTVCEHCDP [Fp12], the “Reactivity … Human serum” value [1] was “++ (++ = <1.0 O.D.)” and the “Reactivity to Fas peptides … (Gammagard)” value [2] was “++ (++ = <1.0 O.D.)”.
In the case of QEGKEYTDKAHFSSKCRRCR [Fp8], the “Reactivity to Fas peptides … (Gammagard)” value [2] is reported as “+++ (+++ > 1.0 O.D.)”.
With HFSSKCRRCRLCDEGHGLEV [Fp9] the “Reactivity to Fas peptides … (Gammagard)” value [2] was “++ (++ = <1.0 O.D.)”.
With LIVWVKRKEVQKTCRKHRKE [Fp18] the “Reactivity to Fas peptides … (Gammagard)” value [2] was “+++ (+++ > 1.0 O.D.)”.
In the case of “Immunoglobulin preparations (Gammagard) (antibody)”, the O.D. 490 nm [4] is reported as > 1 od, the O.D. 490 nm [5] is reported as < 0.5 od and the O.D. 490 nm [6] is reported as < 0.5 od.
